8 molecules from patent publication US12617769B2, “Chemical compound as thyroid hormone beta receptor agonist and use thereof” (SUNSHINE LAKE PHARMA CO., LTD., priority 2019, dated 2026) can be followed below.

Structures are written as SMILES.

The target in one data set is T1, TRα (Homo sapiens, UniProt P10827).
T1 construct: Then 5 μL of 4×TRα-LBD or TRP-LBD; purchased Invitrogen PV4687
The experiment in a line: In vitro binding activity, LanthaScreen TR-FRET Thyroid Receptor alfa Coactivator Assay. The note with it: TRα-LBD. The method, then:
(§1) 2. Detection of TRα or TRβ Binding Activity In Vitro of the Compound of the Present Invention
(§2) • LanthaScreen TR-FRET Thyroid Receptor beta Coactivator Assay kit was purchased from Invitrogen, Cat. No. PV4686; • LanthaScreen TR-FRET Thyroid Receptor alfa Coactivator Assay kit was purchased from Invitrogen, Cat. No. PV4687. Test Method:
(§3) This method was tested using LanthaScreen TR-FRET Thyroid Receptor beta/alfa Coactivator Assay kit. The test compound was dissolved in DMSO and diluted three-fold to obtain a total of 10 concentrations, then the compounds were diluted into solutions containing 2% DMSO with TR-FRET Coregulator Buffer C in the kit. 10 μL of the compounds containing 2% DMSO were taken to a 384-well plate. Then 5 μL of 4×TRα-LBD or TRP-LBD and 5 μL of a mixture containing 0.4 μM fluorescein-SRC2-2 and 8 nM Tb anti-GST antibody were added to each well. After mixing well, the compounds were incubated at room temperature in the dark for 1 h. After 1 h, the fluorescence value (RFU) was read at 520 nm and 495 nm using PHERAstar FSX microplate reader from BMG LABTECH. The emission signal at 520 nm was divided by the emission signal at 495 nm to calculate the TR-FRET ratio.

The target in the next data set is T2, TRβ (Homo sapiens, UniProt P10828).
T2 construct: Then 5 μL of 4×TRα-LBD or TRP-LBD; purchased Invitrogen PV4686
T2 sequence (P10828 217-461 limits assumed): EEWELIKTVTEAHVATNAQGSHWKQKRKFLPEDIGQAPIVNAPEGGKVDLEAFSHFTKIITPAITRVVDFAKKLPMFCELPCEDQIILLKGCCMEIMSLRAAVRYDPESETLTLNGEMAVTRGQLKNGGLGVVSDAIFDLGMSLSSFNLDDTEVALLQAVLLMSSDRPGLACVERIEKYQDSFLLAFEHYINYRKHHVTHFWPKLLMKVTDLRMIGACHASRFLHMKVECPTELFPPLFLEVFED
The data set can be described thus: In vitro binding activity, LanthaScreen TR-FRET Thyroid Receptor beta Coactivator Assay. The note with it: TRβ-LBD. On the procedure: as §1, §2, §3
For orientation: TR-FRET usually uses a lanthanide donor and a delayed reading to cut background.

A short description of data set [1]: Pharmacokinetic determination in SD rats (plasma, LC/MS/MS). The note with it: SD rat; for pharmacokinetic properties (in words): intravenous injection or oral gavage, compared to control MGL3196; for AUC(0-t) / Cmax / Tmax / half-life: male, plasma. The data set is classed as in vivo. The text has this: Test purpose: The following method is used to determine the pharmacokinetics of the compounds of the present invention.
Experimental reagents and test compounds: Propranolol (internal standard), methanol, ammonium acetate, K2EDTA (potassium ethylenediamine tetraacetate), formic acid, acetonitrile, MTBE (methyl tert-butyl ether), KolliphorHS15 (polyethylene glycol 12 hydroxystearate), DMSO (dimethyl sulfoxide) are commercially available; • SD rat: male, 180-220 g, 7-8 weeks old, purchased from Hunan Slake Experimental Animal Co., Ltd. Test Method: 1. Preparation of Test Compounds
Each test compound prepared was completely dissolved in a mixture of 5% DMSO+5% KolliphorHS 15+90% Saline according solubility property thereof.
(1) Preparation of the test compound stock solution: an appropriate amount of test compound was precisely weighed, dissolved in DMSO, diluted to 1 mg/mL with acetonitrile, and shaken well to obtain the test compound stock solution, which was stored at −20° C. for use.
(2) Preparation of internal standard solution: a certain amount of 1 mg/mL Propranolol stock solution was precisely drawn and diluted to 100 ng/mL with water.
The liquid-liquid extraction method was used to process the samples for chromatographic separation. On a triple quadrupole tandem mass spectrometer, quantitative analysis was performed using multiple reactive ion monitoring (MRM), and the concentration were calculated using instrument quantitative software.
30 μL of plasma sample was accurately drawn, and added with 250 μL of internal standard. The mixture was mixed well by vortexing. The mixture was extracted once with 1 mL of MTBE, centrifuged at 13,000 rpm, 4° C. for 2 min, then 800 μL of supernatant was sucked, and evaporated in a 96-well nitrogen blower. The residue was re-dissolved with 150 μL of methanol/water (v/v=50/50), mixed by vortexing, and injected. The injection volume was 8 μL.
An appropriate amount of compound stock solution was accurately drawn, and diluted with acetonitrile to obtain standard series solution. 20 μL of each of the above standard series solutions was accurately drawn, added with 180 μL of blank plasma, and mixed well by vortexing to prepare plasma samples equivalent to plasma concentrations of 3, 5, 10, 30, 100, 300, 1,000, 3,000, 5,000, and 10,000 ng/mL, which were all processed according to “pretreatment of plasma samples”. Two samples were analyzed for each concentration to establish a standard curve.
The content of the test compound in the plasma of rats after administration of different compounds was determined by LC/MS/MS method.
Pharmacokinetic parameters were calculated using a noncompartmental method by WinNonLin 6.1 software.

T1 sequence (P10827 163-410 isoform P10827-2 limits assumed, other chains not shown): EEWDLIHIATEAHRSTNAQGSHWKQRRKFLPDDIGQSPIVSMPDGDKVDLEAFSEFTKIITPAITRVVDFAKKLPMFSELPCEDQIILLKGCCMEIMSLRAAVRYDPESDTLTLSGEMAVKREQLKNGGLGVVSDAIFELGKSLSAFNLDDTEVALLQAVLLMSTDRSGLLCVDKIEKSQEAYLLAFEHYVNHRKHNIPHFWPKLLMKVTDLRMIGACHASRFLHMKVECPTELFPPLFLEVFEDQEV

As a reminder, the EC50 is the concentration at which the effect is half-maximal. One may read the AUC(0-t) as the area under the concentration-time curve up to a stated or last time point. Broadly, the Cmax is the highest concentration seen after dosing. As a reminder, the Tmax is the time at which the peak concentration occurs. As usually defined, the half-life is the time needed for the level to fall by half in the phase considered. Molecule `COC(=O)c1nn(-c2cc(Cl)c(Oc3ccc(=O)n(Cc4ccccc4)c3)c(Cl)c2)c(=O)[nH]c1=O` [Example 16, Methyl 2-(4-((1-benzyl-6-oxo-1,6-dihydropyridin-3-yl)oxy)-3,5-dichlorophenyl)-3,5-dioxo-2,3,4,5-tetrahydro-1,2,4-triazine-6-carboxylate] came in with a concentration giving a half-maximal response (EC50) at TRα of 16300 nM. On TRβ, this molecule registered an EC50 of 360 nM. Also, the “pharmacokinetic properties (in words)” value in data set [1] is recorded as “excellent pharmacokinetic properties”. Also, in data set [1] (po, ig, 5 mg/kg), the AUC(0-t) is 33600 ng·h/mL, the concentration peaked (Cmax) at 12700 ng/mL, the Tmax was 0.5 h and the half-life was 3.05 h. In addition, in data set [1] (iv, 1 mg/kg), the area under the curve AUC(0-t) was determined as 17400 ng·h/mL, the Cmax was determined as 17300 ng/mL, the Tmax amounted to 0.083 h and the half-life was 4 h.

The molecule `O=c1cnn(-c2cc(Cl)c(Oc3ccc(=O)n(Cc4ccccc4)c3)c(Cl)c2)c(=O)[nH]1` [Example 29, 2-(4-((1-benzyl-6-oxo-1,6-dihydropyridin-3-yl)oxy)-3,5-dichlorophenyl)-1,2,4-triazine-3,5-dione] returned a concentration giving a half-maximal response (EC50) at TRα of 370 nM. The response at TRβ was half-maximal at 11 nM (EC50). The “pharmacokinetic properties (in words)” value in data set [1] was “excellent pharmacokinetic properties”. In data set [1] (po, ig, 5 mg/kg), the AUC(0-t) worked out at 115000 ng·h/mL, the maximum concentration (Cmax) was 20000 ng/mL, the time of peak concentration (Tmax) worked out at 0.417 h and the half-life was 2.89 h. In addition, in data set [1] (iv, 1 mg/kg), the area under the curve AUC(0-t) was determined as 16900 ng·h/mL, the highest concentration (Cmax) was determined as 8920 ng/mL, the time of peak concentration (Tmax) worked out at 0.083 h and the half-life was 2.38 h.

Take `Cc1cc(-n2nc(C#N)c(=O)[nH]c2=O)cc(C)c1Oc1ccc(=O)n(Cc2ccccc2)c1` [Example 34, 2-(4-((1-benzyl-6-oxo-1,6-dihydropyridin-3-yl)oxy)-3,5-dimethylphenyl)-3,5-dioxo-2,3,4,5-tetrahydro-1,2,4-triazine-6-carbonitrile]: the values for the half-maximal effective concentration (EC50) at TRα and at TRβ were 7310 nM and 367 nM, respectively.

In the case of `N#Cc1nn(-c2cc(Br)c(Oc3ccc(=O)n(Cc4ccccc4)c3)c(Br)c2)c(=O)[nH]c1=O` [Example 35, 2-(4-((1-benzyl-6-oxo-1,6-dihydropyridin-3-yl)oxy)-3,5-dibromophenyl)-3,5-dioxo-2,3,4,5-tetrahydro-1,2,4-triazine-6-carbonitrile], the concentration giving a half-maximal response (EC50) is 473 nM on TRα and 17 nM at TRβ.

Take `O=c1cnn(-c2cc(Cl)c(Oc3ccc(=O)n(Cc4ccc(F)cc4)c3)c(Cl)c2)c(=O)[nH]1` [Example 36, 2-(3,5-dichloro-4-((1-(4-fluorobenzyl)-6-oxo-1,6-dihydropyridin-3-yl)oxy)phenyl)-1,2,4-triazine-3,5(2H,4H)-dione]: the concentration giving a half-maximal response (EC50) on TRα was 92 nM; on TRβ, less than 4.6 nM.

As to `Cc1cc(Oc2c(Cl)cc(-n3nc(C#N)c(=O)[nH]c3=O)cc2Cl)cn(Cc2ccccc2)c1=O` [Example 37, 2-(4-((1-benzyl-5-methyl-6-oxo-1,6-dihydropyridin-3-yl)oxy)-3,5-dichlorophenyl)-3,5-dioxo-2,3,4,5-tetrahydro-1,2,4-triazine-6-carbonitrile], the EC50 on TRα was greater than 100000 nM; on TRβ it was 245 nM.

In the case of `N#Cc1nn(-c2cc(Cl)c(Oc3cc(Cl)c(=O)n(Cc4ccccc4)c3)c(Cl)c2)c(=O)[nH]c1=O` [Example 38, 2-(4-((1-benzyl-5-chloro-6-oxo-1,6-dihydropyridin-3-yl)oxy)-3,5-dichlorophenyl)-3,5-dioxo-2,3,4,5-tetrahydro-1,2,4-triazine-6-carbonitrile], the half-maximal effective concentration (EC50) at TRα was greater than 33300 nM; at TRβ, 382 nM.

For `CC(C)c1cc(Oc2c(Cl)cc(-n3nc(C#N)c(=O)[nH]c3=O)cc2Cl)n[nH]c1=O` [MGL3196, reference compound], in data set [1] (po, ig, 5 mg/kg), the AUC(0-t) worked out at 20700 ng·h/mL, the highest level (Cmax) was 2610 ng/mL, the time to peak (Tmax) was found to be 2 h and the half-life is 4.26 h. For the same molecule, in data set [1] (iv, 1 mg/kg), the exposure AUC(0-t) came out at 8840 ng·h/mL, the Cmax was determined as 5990 ng/mL, the Tmax was 0.083 h and the half-life is 2.74 h.
